Laboratory results as given in patent US7977322B2 (Vertex Pharmaceuticals Incorporated, priority 2004, dated 2011).

Biological target: T1, ΔF508-CFTR (Homo sapiens, UniProt P13569, DEL508-508)
T1 construct: expressed in transfected cells
Assay: Membrane potential optical (FRET/VIPR) assay, identification of correction compounds
Format: cell-based
Settings: Table 3, assay not given; for Emax: read-out: % Activity / % Efficacy (relative efficacy)
How it was run: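 NIH3T3 mouse fibroblasts stably expressing ΔF508-CFTR were exposed to compound for 16 h at 37° C in serum-free medium, then loaded with DiSBAC2(3)/CC2-DMPE. After addition of 10 μM forskolin plus 20 μM genistein in Cl⁻-free gluconate bath (pH 7.4), depolarization from Cl⁻ efflux was read by FRET (VIPR II).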

T1 sequence (P13569 with tags, fused parts or gaps DEL508-508): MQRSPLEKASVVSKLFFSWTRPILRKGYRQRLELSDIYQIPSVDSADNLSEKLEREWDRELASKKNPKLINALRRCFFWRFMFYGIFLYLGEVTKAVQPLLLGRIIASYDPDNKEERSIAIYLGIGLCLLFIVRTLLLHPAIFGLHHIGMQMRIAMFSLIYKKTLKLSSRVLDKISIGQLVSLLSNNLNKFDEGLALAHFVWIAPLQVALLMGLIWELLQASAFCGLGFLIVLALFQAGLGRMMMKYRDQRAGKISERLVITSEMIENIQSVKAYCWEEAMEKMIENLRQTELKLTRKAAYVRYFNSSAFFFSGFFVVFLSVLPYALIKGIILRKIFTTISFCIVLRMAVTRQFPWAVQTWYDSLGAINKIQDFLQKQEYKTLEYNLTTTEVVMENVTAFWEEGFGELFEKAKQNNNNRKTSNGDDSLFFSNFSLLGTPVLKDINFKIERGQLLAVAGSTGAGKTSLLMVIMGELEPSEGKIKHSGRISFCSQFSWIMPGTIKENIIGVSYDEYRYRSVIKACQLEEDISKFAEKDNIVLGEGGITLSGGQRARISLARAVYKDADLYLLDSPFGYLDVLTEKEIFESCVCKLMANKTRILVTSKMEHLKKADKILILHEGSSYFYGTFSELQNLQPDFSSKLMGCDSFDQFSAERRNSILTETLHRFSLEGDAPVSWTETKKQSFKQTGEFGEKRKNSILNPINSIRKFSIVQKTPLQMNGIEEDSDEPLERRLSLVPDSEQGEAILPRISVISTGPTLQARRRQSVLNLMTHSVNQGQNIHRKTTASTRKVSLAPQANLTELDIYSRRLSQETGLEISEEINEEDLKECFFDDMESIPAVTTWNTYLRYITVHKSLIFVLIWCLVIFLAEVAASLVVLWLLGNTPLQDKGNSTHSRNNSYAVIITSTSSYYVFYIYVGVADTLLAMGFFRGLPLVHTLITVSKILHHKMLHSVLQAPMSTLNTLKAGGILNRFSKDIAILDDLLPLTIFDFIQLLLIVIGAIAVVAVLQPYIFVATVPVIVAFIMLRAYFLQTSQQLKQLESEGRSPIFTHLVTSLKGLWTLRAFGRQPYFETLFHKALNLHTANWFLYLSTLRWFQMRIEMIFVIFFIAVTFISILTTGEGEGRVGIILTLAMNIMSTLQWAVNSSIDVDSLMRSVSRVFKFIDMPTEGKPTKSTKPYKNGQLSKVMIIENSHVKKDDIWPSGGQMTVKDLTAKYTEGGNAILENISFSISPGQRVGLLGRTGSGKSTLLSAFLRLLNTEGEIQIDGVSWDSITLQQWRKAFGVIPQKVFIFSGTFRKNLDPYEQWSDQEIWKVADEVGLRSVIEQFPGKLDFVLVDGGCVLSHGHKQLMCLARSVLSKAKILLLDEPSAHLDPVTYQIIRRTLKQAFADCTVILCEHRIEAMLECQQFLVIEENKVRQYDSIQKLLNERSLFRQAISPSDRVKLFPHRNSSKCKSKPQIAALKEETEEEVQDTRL

SMILES | EC50 | % Activity / % Efficacy (relative efficacy) | Emax
O=C(Nc1ncc(C(SCCCCO)c2ccccc2Cl)s1)C1(c2ccc3c(c2)OCO3)CC1 (centres unmarked) [Example 131] | < 10 µM | – | –
COc1ccc(C2(C(=O)Nc3ncc(Sc4ccccc4C(=O)O)s3)CC2)cc1 [Example 104] | < 10 µM | +++ (“+++” means>100%) | –
COc1ccc(C(c2cnc(NC(=O)C3(c4ccc5c(c4)OCO5)CC3)s2)N(C)C)cc1 (centres unmarked) [Example 350] | < 10 µM | – | > 100%
O=C(Nc1ncc(C(c2ccccc2Cl)N2CCC[C@@H]2CO)s1)C1(c2ccc3c(c2)OCO3)CC1 (some centres unmarked) [Example 229] | < 10 µM | – | > 100%
O=C(Nc1ncc(Cc2ccccc2Cl)s1)C1(c2cccc(O)c2)CC1 [Example 316] | < 10 µM | – | 25 to 100%
O=C(O)c1ccccc1Sc1cnc(NC(=O)C2(c3ccc4c(c3)OCO4)CC2)s1 [Example 101] | < 10 µM | +++ (“+++” means>100%) | –
CCC(c1cnc(NC(=O)C2(c3ccc4c(c3)OCO4)CC2)s1)N1CCC[C@@H]1COC (some centres unmarked) [Example 401] | 10 to 25 µM | – | > 100%
CC(CO)(CO)NC(c1cnc(NC(=O)C2(c3ccc4c(c3)OCO4)CC2)s1)c1ccccc1Cl (centres unmarked) [Example 431] | < 10 µM | – | > 100%
CCN(CC)C(c1ccc(S(C)(=O)=O)cc1)c1cnc(NC(=O)C2(c3ccc4c(c3)OCO4)CC2)s1 (centres unmarked) [Example 376] | 10 to 25 µM | – | 25 to 100%
COCC1CCCN1C(c1cccc(OC)c1)c1cnc(NC(=O)C2(c3ccc4c(c3)OCO4)CC2)s1 (centres unmarked) [Example 353] | < 10 µM | – | > 100%
COc1cccc(C2(C(=O)Nc3ncc(Cc4ccccc4C#N)s3)CC2)c1 [Example 69] | < 10 µM | +++ (“+++” means>100%) | –
CC(C)(C)[C@H](CO)NC(c1cnc(NC(=O)C2(c3ccc4c(c3)OCO4)CC2)s1)c1ccccc1Cl (some centres unmarked) [Example 488] | < 10 µM | – | > 100%
C/C=C/c1cnc(NC(=O)C2(c3ccc4c(c3)OCO4)CC2)s1 [Example 386] | 10 to 25 µM | – | > 100%
COc1ccncc1Cc1cnc(NC(=O)C2(c3ccc4c(c3)OCO4)CC2)s1 [Example 244] | < 10 µM | +++ (“+++” means>100%) | –
CS(=O)(=O)c1ccc(C(c2cnc(NC(=O)C3(c4ccc5c(c4)OCO5)CC3)s2)N2CCCC2)cc1 (centres unmarked) [Example 385] | < 10 µM | – | > 100%
COc1ccc(Cc2cnc(NC(=O)C3(c4ccc(OC)cc4)CC3)s2)cc1 [Example 180] | < 10 µM | +++ (“+++” means>100%) | –
COCCOC(c1cnc(NC(=O)C2(c3ccc4c(c3)OCO4)CC2)s1)c1ccccc1Cl (centres unmarked) [Example 273] | < 10 µM | – | > 100%
COc1cccc(C2(C(=O)Nc3ncc(Cc4ccccc4OC)s3)CC2)c1 [Example 67] | 25 to 60 µM | ++ (“++” means between 25% to 100%) | –
O=C(Nc1ncc(C(NCCC2=CCCCC2)c2ccccc2Cl)s1)C1(c2ccc3c(c2)OCO3)CC1 (centres unmarked) [Example 427] | < 10 µM | – | > 100%
COc1cccc(C2(C(=O)Nc3ncc(Cc4ccccc4Cl)s3)CC2)c1 [Example 66] | < 10 µM | +++ (“+++” means>100%) | –

SMILES | EC50 | % Activity / % Efficacy (relative efficacy) | Emax
O=C(Nc1ncc(C(c2ccccc2Cl)N2CC[C@@H](O)C2)s1)C1(c2ccc(Cl)cc2)CC1 (some centres unmarked) [Example 449] | < 10 µM | – | > 100%
CCCc1nc(NC(=O)C2(c3ccc4c(c3)OCO4)CC2)sc1C(=O)O [Example 191] | < 10 µM | ++ (“++” means between 25% to 100%) | –
CCN(CCO)C(c1cnc(NC(=O)C2(c3ccc4c(c3)OCO4)CC2)s1)c1ccccc1Cl (centres unmarked) [Example 410] | < 10 µM | – | > 100%
COc1ccc(C2(C(=O)Nc3ncc(C(=O)c4ccccc4Cl)s3)CC2)cc1 [Example 44] | < 10 µM | – | > 100%
COC[C@@H]1CCCN1C(c1ccc(S(C)(=O)=O)cc1)c1cnc(NC(=O)C2(c3ccc4c(c3)OCO4)CC2)s1 (some centres unmarked) [Example 379] | 10 to 25 µM | – | 25 to 100%
CCOCCCNC(c1cnc(NC(=O)C2(c3ccc4c(c3)OCO4)CC2)s1)c1ccccc1Cl (centres unmarked) [Example 425] | < 10 µM | – | 25 to 100%
CS(=O)(=O)c1ccc(C(c2cnc(NC(=O)C3(c4ccc5c(c4)OCO5)CC3)s2)N2CCOCC2)cc1 (centres unmarked) [Example 382] | 10 to 25 µM | – | > 100%
Cc1cc(F)ccc1Cc1cnc(NC(=O)C2(c3ccc4c(c3)OCO4)CC2)s1 [Example 283] | < 10 µM | ++ (“++” means between 25% to 100%) | –
CC(C)(C)C(c1cnc(NC(=O)C2(c3ccc4c(c3)OCO4)CC2)s1)N1CCCCC1 (centres unmarked) [Example 383] | 10 to 25 µM | – | > 100%
Cn1nnc2cc(C3(C(=O)Nc4ncc(Cc5ccccc5Cl)s4)CC3)ccc21 [Example 304] | < 10 µM | – | > 100%
CC(C)(C)C(c1cnc(NC(=O)C2(c3ccc4c(c3)OCO4)CC2)s1)N1CCC(O)CC1 (centres unmarked) [Example 392] | 10 to 25 µM | – | > 100%
CCCC[C@@H](CO)NC(c1cnc(NC(=O)C2(c3ccc4c(c3)OCO4)CC2)s1)c1ccccc1Cl (some centres unmarked) [Example 491] | < 10 µM | – | > 100%
CCN(CC)CCN(C(=O)C1(c2ccc(OC)cc2)CC1)c1ncc(Cc2ccccc2Cl)s1 [Example 75] | 25 to 60 µM | ++ (“++” means between 25% to 100%) | –
COc1ccc(C2(C(=O)Nc3ncc(Cc4ccc(Cl)cc4)s3)CC2)cc1 [Example 13] | < 10 µM | – | > 100%
CCC(c1cnc(NC(=O)C2(c3ccc4c(c3)OCO4)CC2)s1)N1CCCCC1 (centres unmarked) [Example 403] | 10 to 25 µM | – | > 100%
CCC(c1cnc(NC(=O)C2(c3ccc4c(c3)OCO4)CC2)s1)N1CCC(O)CC1 (centres unmarked) [Example 396] | 10 to 25 µM | – | 25 to 100%
O=C(Nc1ncc(C(c2ccccc2Cl)N2CC[C@@H](O)C2)s1)C1(c2ccccc2Cl)CC1 (some centres unmarked) [Example 419] | < 10 µM | – | > 100%
COc1ccccc1Sc1cnc(NC(=O)C2(c3ccc4c(c3)OCO4)CC2)s1 [Example 99] | < 10 µM | +++ (“+++” means>100%) | –
O=C(Nc1ncc(C(c2ccccc2Cl)N2CC[C@@H](O)C2)s1)C1(c2ccc(F)cc2)CC1 (some centres unmarked) [Example 421] | 10 to 25 µM | – | > 100%
